Source: ChEMBL document CHEMBL1129619, “New series of potent, orally bioavailable, non-peptidic cyclic sulfones as HIV-1 protease inhibitors” (J Med Chem, 1996)

Columns and labels:
[1] = Cytotoxic Concentration needed to produce 50% reduction in the number of viable MT2 cells assayed by metabolism of a tetrazolium dye.; type: cell-based; details: human
MT2 [2] = assay: Concentration needed to inhibit HIV-1 virus replication in MT2 cells by 50% as determined by XTT assay.; type: functional, cell-based; details: Homo sapiens
MT2 [3] = assay: Concentration needed to inhibit HIV-1 virus replication in MT2 cells by 90% as determined by XTT assay.; type: functional; details: Homo sapiens
[4] = target: Human immunodeficiency virus type 1 protease (Human immunodeficiency virus 1, UniProt Q72874); assay: Concentration needed to inhibit HIV- protease activity by 50%.
[5] = Selectivity ratio between EC50 ancd CC50 values of the compound; type: functional
[6] = Selective ratio between EC50 ancd CC50 values calculated; type: functional

O=S1(=O)[C@H](Cc2ccccc2)[C@H](OCc2cncs2)[C@H](O)[C@@H](O)[C@@H](OCc2cncs2)[C@H]1Cc1ccccc1
CC50 [1]: 40000 nM | EC50 (MT2 [2]): 6.5 nM | EC90 (MT2 [3]): 40 nM | IC50 [4]: 0.3 nM | SI [5]: 6150

O=S1(=O)[C@H](Cc2ccccc2)[C@H](OCc2ccccc2)[C@H](O)[C@@H](O)[C@@H](OCc2ccccc2)[C@H]1Cc1ccccc1
CC50 [1]: 6000 nM | EC50 (MT2 [2]): 40 nM | EC90 (MT2 [3]): 70 nM | IC50 [4]: 0.6 nM | SI [5]: 150

Nc1cccc(CO[C@@H]2[C@H](O)[C@@H](O)[C@@H](OCc3cccc(N)c3)[C@@H](Cc3ccccc3)S(=O)(=O)[C@@H]2Cc2ccccc2)c1
CC50 [1]: 30000 nM | EC50 (MT2 [2]): 9 nM | IC50 [4]: 1 nM | SI [6]: 3330
